# Laboratory results as given in PubChem BioAssay AID687027 (Broad Institute, 2013).
# Test system: RMG-I TPO-Luc reporter, SteadyGlo luminescence, 24 h
# Experiment: PAX8 transcriptional activity inhibition in RMG-I – RMG-I cells, luciferase, cherry-pick, dose response (AID 687027);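 also: potency for lowering reporter light which is read as Pax8 inhibition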
compound,measurement,value
COC(C(=O)C(O)C(C)O)C1Cc2cc3cc(OC4CC(OC5CC(O)C(O)C(C)O5)C(O)C(C)O4)c(C)c(O)c3c(O)c2C(=O)C1OC1CC(OC2CC(OC3CC(O)C(OC)C(C)O3)C(O)C(C)O2)C(O)C(C)O1 (stereo unspecified),AC50,< 260 nM
